Reference: patent US20110300628A1, “ENHANCEMENT OF EPIDERMAL CELL GROWTH BY NON-PROTEIN GROWTH FACTORS” (priority 2010, published 2011)

Experiments:
[1] = tested on: normal human keratinocytes (NHK cells); assay: Clonal growth assay of normal human keratinocytes in serum-free chemically defined medium; assay type: cell-based; details: for clonal growth of NHK relative to control medium supplemented with IGF-1 and EGF: additive in combination with IGF-1 (5 ng/mL), no EGF, 10 days after plating, diBcAMP 0.1 mM, LiCl 10 mM, PGE1 10 μg/ml; for clonal growth of NHK relative to culture medium supplemented with EGF plus IGF-1: 10 days; for replacement of protein growth factor requirement for clonal growth of NHK: serum-free medium, 10 days clonal growth; for effect on clonal growth in high (3×) levels of the six key amino acids: 3× amino acids
Description: The methods for isolating and culturing primary and secondary-passaged normal human neonatal normal human keratinocyte (NHK cells) were those previously employed (Wille et al., 1984). For the purpose of the present invention, secondary serially-passaged cultures were plated at 500 cells/cm in a novel serum-free basal media previously disclosed (Wille J. J., U.S. Pat. No. 5,586,307). This basal nutrient defined culture medium was supplemented either singly with the following additives: diBCAMP (1×10−4 M), LiCl (10 mM), and PGE1 ([…]). All dishes were fixed ten days later, stained with crystal violet stain (0.2%) and photographed.

keratinocyte cells = details: low calcium (0.03 mM) or calcium-free, serum-free medium; cited from earlier work

## CCCCC[C@H](O)/C=C/[C@H]1[C@H](O)CC(=O)[C@@H]1CCCCCCC(=O)O [PGE1, Prostaglandin E1]
[1]
  clonal growth of NHK relative to control medium supplemented with IGF-1 and EGF: significantly enhanced
  replacement of protein growth factor requirement for clonal growth of NHK: can replace both EGF and IGF-1
[1]; in combination with both EGF and IGF-1
  clonal growth of NHK relative to culture medium supplemented with EGF plus IGF-1: significantly enhanced
[1]; in the presence of insulin (5 μg/mL) and EGF (10 ng/mL)
  clonal growth in elevated (3×) levels of the six key amino acids relative to lower (1×) levels: significant enhancement
[1]; single addition to medium unsupplemented by any protein growth factors
  clonal growth of NHK relative to culture medium supplemented with EGF plus IGF-1: significantly enhanced

## [Sr+2] [Strontium ions (Sr 2+)]
Keratinocyte cells
  concentration of maximal enhancement of cell viability and increase in cell number: 1.0 to 2.0 mM

## [Cl-].[Li+] [Li+ ions, Lithium chloride]
[1]; 10 mM, serum-free chemically defined medium
  multiplication of human keratinocyte cells: stimulate
[1]; 1× amino acids, with protein growth factors
  effect on clonal growth in low (1×) levels of the six key amino acids: growth-enhancing effects
[1]; with protein growth factors, listed as lithium ions
  effect on clonal growth in high (3×) levels of the six key amino acids: lost
[1]; with protein growth factors, listed as lithium ions (Li+)
  effect on clonal growth in high (3×) levels of the six key amino acids: no enhancement
[1]
  clonal growth of NHK relative to control medium supplemented with IGF-1 and EGF: significantly enhances
  replacement of protein growth factor requirement for clonal growth of NHK: can replace EGF
[1]; listed as Lithium ions
  replacement of protein growth factor requirement for clonal growth of NHK: completely replaced EGF

## CCCC(=O)Nc1ncnc2c1ncn2[C@@H]1O[C@@H]2COP(=O)(O)O[C@H]2[C@H]1OC(=O)CCC [diBcAMP, dibutryl-3′-5′-adenosine monophosphate]
[1]
  clonal growth of NHK relative to control medium supplemented with IGF-1 and EGF: significantly enhanced
  replacement of protein growth factor requirement for clonal growth of NHK: can replace EGF
[1]; listed as diBCAMP
  clonal growth of NHK relative to control medium supplemented with IGF-1 and EGF: does enhance
